In paper PMC12736120, “First-in-Human Phase I Clinical Trial of SLC-391, a Novel and Selective AXL Inhibitor, in Patients with Advanced Solid Tumours” (Pharmaceuticals, 2025):
Where two headings read alike, the source gives them in different places.

Assay: Plasma pharmacokinetics, QD and BID cohorts (non-compartmental)
Assay type: in vivo, human
Settings: for Cmin, Mean / Cmin, Median / AUC / AUC(0-t) / Cmax / Tmax: plasma; for AR Factor (accumulation ratio), AUC0–12 / AR Factor (accumulation ratio), AUC0–last / AR Factor (accumulation ratio), Cmax: C1D21 vs C1D1; for AUC / AUC(0-t) / Cmax / Tmax: human, oral
Experimental: PK parameters were calculated by standard non-compartmental methods for SLC-391. Due to the long half-life of SLC-391 compared to the dosing interval, it was not possible to calculate a number of PK parameters, including plasma half-life and rate of elimination. Accumulation was assessed from the mean accumulation ratio factor (AR factor) calculated as the repeated dose (C1D21) mean value/single dose (C1D1) mean value for the PK parameters Cmax, AUC0–12, and AUC0–last for each dose group.
During QD dosing, blood samples for determination of SLC-391 plasma concentrations were collected predose and at 0.5, 1, 2, 3, 4, 6, 8, and 24 h after SLC-391 administration on cycle 1 day 1 (C1D1) and cycle 1 day 21 (C1D21). During BID dosing, blood samples were collected predose and at 1, 2, 3, 4, 6, 8, and 12 h after the first daily dose (before the second daily dose). Where possible, further samples were then collected at 13, 14, 22, and 24 h after the initial dose (predose C1D2). Blood samples were also collected on C1D21 (steady state) predose and at 1, 2, 3, 4, 6, 8, and 12 h after the first daily dose (before the second daily dose). Where possible, further samples were then collected at 13, 14, 22, and 24 h after the initial C1D21 dose (predose C2D1). An additional blood sample was also taken, where possible, at the end of treatment (EOT) visit.
After collection, blood samples were centrifuged, and plasma was separated and stored at −80 °C. Plasma concentrations of SLC-391 were measured by a validated analytical method involving liquid–liquid extraction followed by high-performance liquid chromatography (HPLC)–mass/mass spectroscopy assay using a Water Quattro Premier tandem quadrupole mass spectroscopy with Waters MassLynx data acquisition and processing software. Plasma analysis was carried out by Microconstants (San Diego, CA, USA) in compliance with the US FDA GLP regulations. The calibration range of the assay was from 0.100 to 100 ng/mL. Quality control samples prepared at 4 different analyte concentrations were analysed with each batch of samples against a separately prepared calibration standard. PK parameters were collected following single (day 1) and repeat dose (day 21) administration. PK parameters were summarised with appropriate descriptive statistics where possible (e.g., mean, geometric mean, median, maximum, minimum, and coefficient of variation). Descriptive PK parameters were determined by standard non-compartmental methods based on the concentration–time data of each subject. The nominal time was used for descriptive statistics calculations, and the actual sample collection times were used in PK analyses. PK analyses were performed using validated Phoenix WinNonlin Professional 8.3 (Certara, L.P., St. Louis, MO, USA).

For Nc1ncc(-c2cnn(C3CCNCC3)c2)cc1-c1nnc(CC2CC2)o1 [SLC-391, 3-(5-[cyclopropylmethyl]-1,3,4-oxadiazol-2-yl)-5-(1-[piperidin-4-yl]-1H-pyrazol-4-yl)-pyridin-2-amine], the “Cmin, Mean” value (25 mg, QD, C1D21) was 10.3 ng/mL, the “Cmin, Median” value (25 mg, QD, C1D21) was 7.8 ng/mL and the “Cmin, Mean” value (50 mg, QD, C1D21) was 34.9 ng/mL. For the same molecule, the “Cmin, Median” value (50 mg, QD, C1D21) was 34.9 ng/mL, the Cmin (75 mg BID, C1D21, mean, n=3, plasma) was 147.5 ng/mL and the Cmin (75 mg BID, C1D21, median, n=3, plasma) was 128.0 ng/mL. The “AR Factor (accumulation ratio), AUC0–12” value (75 mg BID) was 3.2, the “AR Factor (accumulation ratio), AUC0–last” value (75 mg BID) was 3.2 and the “AR Factor (accumulation ratio), Cmax” value (75 mg BID) was 2.4. For the same molecule, the “Cmin, Mean” value (100 mg, QD, C1D21) was 151.8 ng/mL, the “Cmin, Median” value (100 mg, QD, C1D21) was 151.8 ng/mL and the Cmin (110 mg BID, C1D21, mean, n=3, plasma) was 145.6 ng/mL. The Cmin (110 mg BID, C1D21, median, n=3, plasma) was 90.2 ng/mL, the “AR Factor (accumulation ratio), AUC0–12” value (110 mg BID) was 3.5 and the “AR Factor (accumulation ratio), AUC0–last” value (110 mg BID) was 3.7. For the same molecule, the “AR Factor (accumulation ratio), Cmax” value (110 mg BID) was 2.6, the “Cmin, Mean” value (125 mg, QD, C1D21) was 33.7 ng/mL and the “Cmin, Median” value (125 mg, QD, C1D21) was 42.0 ng/mL. The Cmin (150 mg BID, C1D21, mean, n=6, plasma) was 243.5 ng/mL, the Cmin (150 mg BID, C1D21, median, n=6, plasma) was 242.5 ng/mL and the “AR Factor (accumulation ratio), AUC0–12” value (150 mg BID) was 4.4. For the same molecule, the “AR Factor (accumulation ratio), AUC0–last” value (150 mg BID) was 3.9, the “AR Factor (accumulation ratio), Cmax” value (150 mg BID) was 2.2 and the “Cmin, Mean” value (150 mg, QD, C1D21) was 102.8 ng/mL. For the same molecule, the “Cmin, Median” value (150 mg, QD, C1D21) was 89.9 ng/mL, the Cmin (200 mg BID, C1D21, mean, n=2, plasma) was 471.5 ng/mL and the Cmin (200 mg BID, C1D21, median, n=2, plasma) was 471.5 ng/mL. The “AR Factor (accumulation ratio), AUC0–12” value (200 mg BID) was 8.7, the “AR Factor (accumulation ratio), AUC0–last” value (200 mg BID) was 8.0 and the “AR Factor (accumulation ratio), Cmax” value (200 mg BID) was 5.0. For the same molecule, the AUC (25 mg, QD, C1D1, read-out: AUC0–12, Mean) was 177 ng·h/mL, the AUC (25 mg, QD, C1D1, read-out: AUC0–12, Median) was 211 ng·h/mL and the AUC(0-t) (25 mg, QD, C1D1, read-out: AUC0–last, Mean) was 270 ng·h/mL. For the same molecule, the AUC(0-t) (25 mg, QD, C1D1, read-out: AUC0–last, Median) was 302 ng·h/mL, the Cmax (25 mg, QD, C1D1, read-out: Cmax, Mean) was 32.5 ng/mL and the Cmax (25 mg, QD, C1D1, read-out: Cmax, Median) was 39.6 ng/mL. For the same molecule, the Tmax (25 mg, QD, C1D1, read-out: Tmax, Mean) was 2 h, the Tmax (25 mg, QD, C1D1, read-out: Tmax, Median) was 2 h and the AUC (25 mg, QD, C1D21, read-out: AUC0–12, Mean) was 286 ng·h/mL. It also gave an AUC (25 mg, QD, C1D21, read-out: AUC0–12, Median) of 232 ng·h/mL, an AUC(0-t) (25 mg, QD, C1D21, read-out: AUC0–last, Mean) of 461 ng·h/mL and an AUC(0-t) (25 mg, QD, C1D21, read-out: AUC0–last, Median) of 366 ng·h/mL. It also gave a Cmax (25 mg, QD, C1D21, read-out: Cmax, Mean) of 41.9 ng/mL, a Cmax (25 mg, QD, C1D21, read-out: Cmax, Median) of 41.2 ng/mL and a Tmax (25 mg, QD, C1D21, read-out: Tmax, Mean) of 2.7 h. It also gave a Tmax (25 mg, QD, C1D21, read-out: Tmax, Median) of 2.1 h, an AUC (50 mg, QD, C1D1, read-out: AUC0–12, Mean) of 382 ng·h/mL and an AUC (50 mg, QD, C1D1, read-out: AUC0–12, Median) of 413 ng·h/mL. It also gave an AUC(0-t) (50 mg, QD, C1D1, read-out: AUC0–last, Mean) of 594 ng·h/mL, an AUC(0-t) (50 mg, QD, C1D1, read-out: AUC0–last, Median) of 643 ng·h/mL and a Cmax (50 mg, QD, C1D1, read-out: Cmax, Mean) of 72.9 ng/mL. It also gave a Cmax (50 mg, QD, C1D1, read-out: Cmax, Median) of 65.8 ng/mL, a Tmax (50 mg, QD, C1D1, read-out: Tmax, Mean) of 2 h and a Tmax (50 mg, QD, C1D1, read-out: Tmax, Median) of 1 h. It also gave an AUC (50 mg, QD, C1D21, read-out: AUC0–12, Mean) of 706 ng·h/mL, an AUC (50 mg, QD, C1D21, read-out: AUC0–12, Median) of 706 ng·h/mL and an AUC(0-t) (50 mg, QD, C1D21, read-out: AUC0–last, Mean) of 1210 ng·h/mL. The AUC(0-t) (50 mg, QD, C1D21, read-out: AUC0–last, Median) was 1210 ng·h/mL, the Cmax (50 mg, QD, C1D21, read-out: Cmax, Mean) was 99.2 ng/mL and the Cmax (50 mg, QD, C1D21, read-out: Cmax, Median) was 99.2 ng/mL. The Tmax (50 mg, QD, C1D21, read-out: Tmax, Mean) was 1.5 h, the Tmax (50 mg, QD, C1D21, read-out: Tmax, Median) was 1.5 h and the AUC (75 mg, 75 mg BID, C1D1, mean, n=3, plasma, read-out: AUC0–12) was 706 ng·h/mL. It also gave an AUC(0-t) (75 mg, 75 mg BID, C1D1, mean, n=3, plasma, read-out: AUC0–last) of 1390 ng·h/mL, a Cmax (75 mg, 75 mg BID, C1D1, mean, n=3, plasma, read-out: Cmax) of 114 ng/mL and a Tmax (75 mg, 75 mg BID, C1D1, mean, n=3, plasma, read-out: Tmax) of 9.4 h. The AUC (75 mg, 75 mg BID, C1D1, median, n=3, plasma, read-out: AUC0–12) was 541 ng·h/mL, the AUC(0-t) (75 mg, 75 mg BID, C1D1, median, n=3, plasma, read-out: AUC0–last) was 1110 ng·h/mL and the Cmax (75 mg, 75 mg BID, C1D1, median, n=3, plasma, read-out: Cmax) was 93.4 ng/mL. It also gave a Tmax (75 mg, 75 mg BID, C1D1, median, n=3, plasma, read-out: Tmax) of 3 h, an AUC (75 mg, 75 mg BID, C1D21, mean, n=3, plasma, read-out: AUC0–12) of 2290 ng·h/mL and an AUC(0-t) (75 mg, 75 mg BID, C1D21, mean, n=3, plasma, read-out: AUC0–last) of 4420 ng·h/mL. It also gave a Cmax (75 mg, 75 mg BID, C1D21, mean, n=3, plasma, read-out: Cmax) of 267 ng/mL, a Tmax (75 mg, 75 mg BID, C1D21, mean, n=3, plasma, read-out: Tmax) of 3 h and an AUC (75 mg, 75 mg BID, C1D21, median, n=3, plasma, read-out: AUC0–12) of 2290 ng·h/mL. For the same molecule, the AUC(0-t) (75 mg, 75 mg BID, C1D21, median, n=3, plasma, read-out: AUC0–last) was 4300 ng·h/mL, the Cmax (75 mg, 75 mg BID, C1D21, median, n=3, plasma, read-out: Cmax) was 331 ng/mL and the Tmax (75 mg, 75 mg BID, C1D21, median, n=3, plasma, read-out: Tmax) was 1.9 h. It also gave an AUC (100 mg, QD, C1D1, n 1, read-out: AUC0–12, Mean) of 1350 ng·h/mL, an AUC (100 mg, QD, C1D1, n 1, read-out: AUC0–12, Median) of 1350 ng·h/mL and an AUC(0-t) (100 mg, QD, C1D1, read-out: AUC0–last, Mean) of 875 ng·h/mL. It also gave an AUC(0-t) (100 mg, QD, C1D1, read-out: AUC0–last, Median) of 460 ng·h/mL, a Cmax (100 mg, QD, C1D1, read-out: Cmax, Mean) of 141 ng/mL and a Cmax (100 mg, QD, C1D1, read-out: Cmax, Median) of 112 ng/mL. The Tmax (100 mg, QD, C1D1, read-out: Tmax, Mean) was 0.8 h, the Tmax (100 mg, QD, C1D1, read-out: Tmax, Median) was 0.9 h and the AUC(0-t) (100 mg, QD, C1D21, read-out: AUC0–last, Mean) was 1800 ng·h/mL. The AUC(0-t) (100 mg, QD, C1D21, read-out: AUC0–last, Median) was 1800 ng·h/mL, the Cmax (100 mg, QD, C1D21, read-out: Cmax, Mean) was 436 ng/mL and the Cmax (100 mg, QD, C1D21, read-out: Cmax, Median) was 436 ng/mL. For the same molecule, the Tmax (100 mg, QD, C1D21, read-out: Tmax, Mean) was 1.9 h, the Tmax (100 mg, QD, C1D21, read-out: Tmax, Median) was 1.9 h and the AUC (110 mg, 110 mg BID, C1D1, mean, n=3, plasma, read-out: AUC0–12) was 639 ng·h/mL. The AUC(0-t) (110 mg, 110 mg BID, C1D1, mean, n=3, plasma, read-out: AUC0–last) was 1170 ng·h/mL, the Cmax (110 mg, 110 mg BID, C1D1, mean, n=3, plasma, read-out: Cmax) was 95.2 ng/mL and the Tmax (110 mg, 110 mg BID, C1D1, mean, n=3, plasma, read-out: Tmax) was 3 h. For the same molecule, the AUC (110 mg, 110 mg BID, C1D1, median, n=3, plasma, read-out: AUC0–12) was 593 ng·h/mL and the AUC(0-t) (110 mg, 110 mg BID, C1D1, median, n=3, plasma, read-out: AUC0–last) was 1130 ng·h/mL.
